Values after ≈ are worked out from the molar mass of the structure shown. Counter-ions that a name gives are not always drawn.
Legend:
M. tuberculosis H37Rv = experiment: MIC determination by microbroth dilution, anti-tuberculosis activity; format: cell-based, Mycobacterium tuberculosis; conditions: Mycobacterium tuberculosis, H37RV, 168 h; read-out: MIC
B. anthracis Sterne 34F2 = experiment: microbe, parasite or virus in culture; format: cell-based, Bacillus anthracis; conditions: Bacillus anthracis, STERNE34F2, read-out: MIC B. anthracis 34F2
[1] = tested on: Proteus vulgaris ATCC 33420; experiment: MIC determination by microbroth dilution; format: cell-based; conditions: ATCC33420
E. coli K12 = experiment: MIC determination by microbroth dilution; format: cell-based, Escherichia coli; conditions: Escherichia coli, K12
E. faecalis ATCC 33186 = experiment: MIC determination by microbroth dilution; format: cell-based, Enterococcus faecalis; conditions: Enterococcus faecalis, ATCC33186
[2] = tested on: Strep. pneumoniae DAW27 or strain R6; experiment: MIC determination by microbroth dilution; format: cell-based, Streptococcus pneumoniae; conditions: Streptococcus pneumoniae; Strep. pneumoniae DAW27 or strain R6 (for 1443-1544); read-out: MIC S. pneumoniae
[3] = tested on: Proteus mirabilis ATCC 25933; experiment: MIC determination by microbroth dilution; format: cell-based; conditions: ATCC25933
[4] = tested on: Strep. pyogenes ATCC 700294; experiment: MIC determination by microbroth dilution; format: cell-based, Streptococcus pyogenes; conditions: Streptococcus pyogenes, ATCC700294, read-out: MIC S. pyogenes
E. coli K12 ΔtolC = experiment: microbe, parasite or virus in culture; format: cell-based; conditions: Escherichia coli, read-out: MIC E. coli K12 ΔtolC
[5] = tested on: Acinetobacter baumannii ATCC 19606; experiment: MIC determination by microbroth dilution; format: cell-based; conditions: ATCC19606
[6] = tested on: Klebsiella pneumoniae ATCC 33495; experiment: MIC determination by microbroth dilution; format: cell-based; conditions: ATCC33495
[7] = tested on: Burkholderia cepacia ATCC 25416; experiment: MIC determination by microbroth dilution; format: cell-based; conditions: ATCC25416, read-out: MIC B. cepcia
E. coli ribosomes = format: biochemical; conditions: for IC50, 50% inhibition of luciferase biosynthesis in S30 assay: E. coli S30 transcription/translation assay; for relative inhibitory activity on luciferase production: tested at 0.66 and 6.6 μM, FIG. 5
P. aeruginosa PAO1 = experiment: MIC determination by microbroth dilution; format: cell-based, Pseudomonas aeruginosa; conditions: Pseudomonas aeruginosa
[8] = tested on: Strenotrophomonas maltophilia ATCC 13637; experiment: MIC determination by microbroth dilution; format: cell-based
[9] = tested on: S. aureus 8325 or strain ATCC 29213; experiment: MIC determination by microbroth dilution; format: cell-based, Staphylococcus aureus; conditions: Staphylococcus aureus, ATCC29213; S. aureus 8325 or strain ATCC 29213 (for 1471-1544)
[10] = Cytotoxicity, MTT cell proliferation assay; conditions: African green monkey, Vero epithelial cells (ATCC CCL-81)
Vero epithelial cells = conditions: African green monkey
Borrelia burgdorferi = conditions: spirochete Borrelia burgdorferi, Criswell et al.; cited from earlier work

| SMILES | MIC (M. tuberculosis H37Rv) [µg/mL] | MIC (B. anthracis Sterne 34F2) [µg/mL] | MIC [1] [µg/mL] | MIC (E. coli K12) [µg/mL] | MIC (E. faecalis ATCC 33186) [µg/mL] | MIC [2] [µg/mL] | MIC [3] [µg/mL] | MIC [4] [µg/mL] | MIC (E. coli K12 ΔtolC) [µg/mL] | MIC [5] [µg/mL] | MIC [6] [µg/mL] | MIC [7] [µg/mL] | IC50, 50% inhibition of luciferase biosynthesis in S30 assay (E. coli ribosomes) [µg/mL] | MIC (P. aeruginosa PAO1) [µg/mL] | MIC [8] [µg/mL] | MIC [9] [µg/mL] | relative inhibitory activity on luciferase production (E. coli ribosomes) | further results |
| --- | --- | --- | --- | --- | --- | --- | --- | --- | --- | --- | --- | --- | --- | --- | --- | --- | --- | --- |
| CN[C@@H]1[C@H](O)[C@H](NC)C2O[C@]3(O)C(OC2[C@H]1O)O[C@H](C)C[C@H]3NC(=O)CCc1cccnc1 (stereo partly drawn) [Compound 1299, 3′-Dihydro-3′-deoxy-4(R)-(3-pyridin-3-yl)propionylamino spectinomycin Dihydrochloride] | 25 | 200 | > 200 | > 200 | > 200 | 200 | > 200 | 200 | 200 | > 200 | > 200 | > 200 | 0.97 | > 200 | > 200 | 200 |  |  |
| CN[C@@H]1[C@H](O)[C@H](NC)[C@H]2O[C@@]3(O)C(=O)C[C@@H](C)O[C@H]3O[C@@H]2[C@H]1O [Spectinomycin, reference compound] | 25 (≈ 75.2 µM) | 25 (≈ 75.2 µM) | 50 (≈ 150 µM) | 12.5 to 50 (≈ 37.6 to 150 µM) | 50 (≈ 150 µM) | 50 (≈ 150 µM) | > 200 | 25 (≈ 75.2 µM) | 12.5 (≈ 37.6 µM) | > 200 | 50 (≈ 150 µM) | > 200 | 0.32 | 100 (≈ 301 µM) | > 200 | 25 (≈ 75.2 µM) |  | IC50 at 72 h [10]: 1030 µg/mL (≈ 3100 µM); therapeutic index (IC50 divided by the MIC) (Vero epithelial cells): 41.5; frequency at which resistance arises (Borrelia burgdorferi): 10^−6; IC50 (E. coli ribosomes; E. coli S30 system, FIG. 4, read-out: concentration causing 50% reduction in the synthesis of luciferase): 900 nM |
| CN[C@@H]1[C@H](O)[C@H](NC)C2O[C@]3(O)C(OC2[C@H]1O)O[C@H](C)C[C@H]3NC(=O)c1ccco1 (stereo partly drawn) [Compound 1365, 3′-Dihydro-3′-deoxy-4(R)-furan-2-carboxylicamino spectinomycin Dihydrochloride] | 100 | > 200 | > 200 | > 200 | > 200 | > 200 | > 200 | > 200 | 200 | > 200 | > 200 | > 200 |  | > 200 | > 200 | > 200 | less active than 1329 |  |
| CN[C@@H]1[C@H](O)[C@H](NC)C2O[C@]3(O)C(OC2[C@H]1O)O[C@H](C)C[C@H]3NC(=O)Cc1ncccn1 (stereo partly drawn) [Compound 1439, 3′-Dihydro-3′-deoxy-4(R)-(pyrimidin-2yl)acetylamino spectinomycin Dihydrochloride] | > 200 | 50 | > 200 | 100 | 50 | 12.5 | > 200 | > 200 | 12.5 | > 200 | > 200 | > 200 | 2.63 | 50 | > 200 | 25 | less active than 1329 |  |
| CN[C@@H]1[C@H](O)[C@H](NC)C2O[C@]3(O)C(OC2[C@H]1O)O[C@H](C)C[C@H]3NCc1ccco1 (stereo partly drawn) [Compound 1422, 3′-Dihydro-3′-deoxy-4(R)-furan-2yl-methylamino spectinomycin Trihydrochloride] | 200 | 12.5 | > 200 | 25 | 12.5 | 50 | > 200 | 200 | 12.5 | > 200 | > 200 | > 200 |  | 25 | > 200 | 25 | inhibited well |  |

Reference: US9284325B2, “Spectinamides as anti-tuberculosis agents” (UNIVERSITY OF TENNESSEE RESEARCH FOUNDATION, priority 2009, dated 2016)
